Results reported in US20210284621A1 (priority 2018, published 2021).
Entries after “also recorded” stand apart in the source; their conditions may differ. Read-outs that look alike come from different tables or passages of the source.

Tests used:
[1] = Pharmacokinetics after IV dose in mice; details: in vivo, 1 mg/kg IV, male C57BL/6 mice; for AUC(0-t): male, C57BL/6, mouse, iv, 1 mg/kg; for AUC(0-inf) / C0 / MRT inf / clearance / half-life / Vd: mouse; for Vd: read-out: Vss
Method: Male C57BL/6 mice were administered an intravenous (IV) dose of 1 mg/kg of the indicated compound.

[2] = Pharmacokinetics after PO dose in mice; assay type: in vivo, Male C57BL/6 mice; details: 10 mg/kg PO; for AUC(0-inf) / Cmax / MRT inf / Tmax / half-life / AUC(0-t): male, C57BL/6, mouse, in vivo; for AUC(0-t): read-out: AUC0-24 hr
CB1 receptor [3] = target: T1, CB1 receptor (Homo sapiens, UniProt P21554); test: cAMP Assay #1: CB1 adenylylcyclase assay in CHO cells; assay type: cell-based; set-up: expressed in transfected cells; host or cells: CHO cells
How it was run: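 CHO cells expressing human recombinant CB1 incubated with compound 20 min at 37 °C; agonism read as change in cAMP production. EC50 from non-linear Hill-equation fit of mean replicate concentration-response curves.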

CB1 receptor [4] = target: T1, CB1 receptor; test: CB1 competitive radioligand binding assay ([3H] SR141716A); set-up: expressed in transfected cells; host or cells: Chem-1 cells; details: for inhibition at 0.5 µM: 0.5 μM compound, 2.0 nM [3H] SR141716A, 90 min 37° C.
How it was run: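 Chem-1 cells expressing human recombinant CB1 incubated 90 min at 37° C with 2.0 nM [3H]SR141716A and compound at 0.5 μM (1% DMSO) in HEPES pH 7.4 buffer with MgCl2, CaCl2, 0.2% BSA. Read-out is % inhibition of radioligand binding.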

CB2 receptor = CB2 receptor (Homo sapiens, UniProt P34972); test: CB2 competitive radioligand binding assay ([3H] WIN-55,212-2); set-up: expressed in transfected cells; host or cells: CHO-K1 cells; details: for inhibition at 0.05 µM: 0.05 μM compound, 2.4 nM [3H] WIN-55,212-2, 90 min 37° C.; for Fold Selectivity (CB1/CB2): Table 2, ratio of Ki CB1/CB2
How it was run: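 CHO-K1 cells expressing human recombinant CB2 were incubated with compound (0.05 μM, 1% DMSO) and 2.4 nM [3H]WIN-55,212-2 in 20 mM HEPES pH 7.0, 0.5% BSA for 90 min at 37 °C. Percent inhibition of radioligand binding was reported.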

[5] = Brain concentration and brain/plasma ratio after PO dose in mice; assay type: in vivo; details: mouse, 10 mg/kg PO, male C57BL/6 mice; for Kp at 4 h / Kp at 10 h: brain/plasma; for concentration at 4 h / concentration at 10 h / concentration at 24 h: brain
Method: Male C57BL/6 mice were administered an oral (P0) dose of 10 mg/kg of the indicated compound. The brain/plasma ratios of the indicated compounds were determined by standard methods, the results of which are provided in Table 11.

[6] = test system: 12 systems of human primary cells; test: BioMAP Diversity PLUS phenotypic screen; assay type: cell-based; details: 3.3 μM; for Anti-proliferation: cell type in which anti-proliferative effect was seen; for Immune modulation, cell surface and tissue remodeling biomarkers: changes at least 1.5-fold from vehicle control
Method: Compounds of the invention were assayed for their effects on 148 biomarkers of inflammation, immune modulation and tissue remodeling in the BioMAP® Diversity PLUS® (DiscoverX) platform designed to model aspects of human diseases in vitro (Kunkel 2004, Berg 2006, Melton 2013).
The example compounds (3.3 μM) in Table 8 induced increases or decreases in the levels of the indicated 20 biomarkers, which are at least 1.5-fold change from vehicle control and are outside the significance prediction envelop. All compounds presented in Table 8 were not cytotoxic at the concentration tested.

[7] = CHO cells, 20 min 37° C., relative to 10 nM CP 55940, read-out: CB1 Activity EC50 (cAMP)
[8] = Table 2, read-out: CB1 Binding Ki
[9] = Table 2, read-out: CB2 Binding Ki

T1 sequence (P21554 whole entry): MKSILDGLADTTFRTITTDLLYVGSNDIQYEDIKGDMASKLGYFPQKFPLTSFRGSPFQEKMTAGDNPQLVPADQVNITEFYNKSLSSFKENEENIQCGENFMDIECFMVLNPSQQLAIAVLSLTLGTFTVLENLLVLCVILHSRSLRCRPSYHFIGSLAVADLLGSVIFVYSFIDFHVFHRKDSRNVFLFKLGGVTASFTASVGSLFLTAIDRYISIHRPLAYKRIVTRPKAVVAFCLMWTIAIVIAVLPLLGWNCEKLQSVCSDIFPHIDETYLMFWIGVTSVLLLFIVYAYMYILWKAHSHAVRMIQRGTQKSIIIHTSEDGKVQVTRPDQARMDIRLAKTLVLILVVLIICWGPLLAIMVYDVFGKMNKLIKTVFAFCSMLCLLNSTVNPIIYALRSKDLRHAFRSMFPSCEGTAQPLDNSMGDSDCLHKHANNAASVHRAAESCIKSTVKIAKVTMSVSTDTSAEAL
Chain of CB2 receptor (P34972 whole entry): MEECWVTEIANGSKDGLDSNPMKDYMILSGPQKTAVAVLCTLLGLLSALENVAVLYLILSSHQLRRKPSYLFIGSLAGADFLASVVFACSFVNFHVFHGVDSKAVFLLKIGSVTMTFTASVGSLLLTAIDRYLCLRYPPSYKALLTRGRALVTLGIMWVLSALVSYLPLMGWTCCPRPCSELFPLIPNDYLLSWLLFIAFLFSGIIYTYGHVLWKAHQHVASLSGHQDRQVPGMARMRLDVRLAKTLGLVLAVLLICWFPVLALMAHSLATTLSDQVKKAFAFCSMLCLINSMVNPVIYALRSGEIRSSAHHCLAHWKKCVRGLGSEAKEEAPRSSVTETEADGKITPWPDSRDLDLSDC

Structure (SMILES)	AUC(0-t) ([1]; read-out: AUC0-24 hr) [ng·h/mL]	AUC(0-t) ([1]; read-out: AUClast) [ng·h/mL]	AUC(0-inf) [1] [ng·h/mL]	C0 [1] [ng/mL]	MRT inf [1] [h]	clearance [1] [mL/min/kg]	half-life [1] [h]	Vd [1] [L/kg]	F [2] [%]	Tlag [2] [h]	AUC(0-inf) [2] [ng·h/mL]	Cmax [2] [ng/mL]	MRT inf [2] [h]	Tmax [2] [h]	half-life [2] [h]	AUC(0-t) [2] [ng·h/mL]	inhibition at 0.5 µM (CB1 receptor [4]) [%]	inhibition at 0.05 µM (CB2 receptor) [%]	EC50 (CB1 receptor [3]; [7]) [nM]	Ki (CB1 receptor [4]; [8]) [nM]	further results
CCCCCCC(C)(C)c1cc(O)c2c(c1)OC(C)(C)[C@@H]1CC=C(C(=O)O)C[C@@H]21 [AJA, (6aR,10aR)-1-hydroxy-6,6-dimethyl-3-(2-methyl-2-octanyl)-6a,7,10,10a-tetrahydro-6H-benzo[c]chromene-9-carboxylic acid, reference compound]	2770	2420	2510	1750	1.89	6.67	1.41	0.75	70.79	0	17800	3860	3.42	1	2.19	17800	-1	0			EC50 (CB1 receptor [3]): 4.6 nM; Ki (CB1 receptor [4]): > 3000 nM; Ki (CB2 receptor): 633 nM
CCCCCCC(C)(C)c1cc(O)c2c(c1)OC(C)(C)[C@@H]1CC=C(C(=O)NC(C)(C)CCO)C[C@@H]21 [Compound 15, (6aR,10aR)-1-Hydroxy-N-(4-hydroxy-2-methylbutan-2-yl)-6,6-dimethyl-3-(2-methyloctan-2-yl)-6a,7,10,10a-tetrahydro-6H-benzo[c]chromene-9-carboxamide]	1720	1510	1570	1840	2.16	10.6	1.74	1.37	37.4	0.00	5890	779	5.07	4	2.65	5870	16	54	68	660	Kp at 4 h [5]: 0.139; Kp at 10 h [5]: 0.331; concentration at 4 h [5]: 107 ng/g; concentration at 10 h [5]: 50.4 ng/g; concentration at 24 h [5]: 0 ng/g; Fold Selectivity (CB1/CB2) (CB2 receptor): 18.3; Ki (CB2 receptor; [9]): 36 nM
CCCCCCC(C)(C)c1cc(O)c2c(c1)OC(C)(C)[C@@H]1CC=C(C(=O)NC(CO)CO)C[C@@H]21 [Compound 25, (6aR,10aR)-N-(1,3-Dihydroxypropan-2-yl)-1-hydroxy-6,6-dimethyl-3-(2-methyloctan-2-yl)-6a,7,10,10a-tetrahydro-6H-benzo[c]chromene-9-carboxamide]																	29	36	16	316	Anti-proliferation [6]: Dermal fibroblasts; Immune modulation, cell surface and tissue remodeling biomarkers [6]: Reduced VCAM-1, PAI-I, IL-10, and M-CSF; increased MMP-1; Fold Selectivity (CB1/CB2) (CB2 receptor): 4.33; Ki (CB2 receptor; [9]): 73 nM
CCCCCCC(C)(C)c1cc(O)c2c(c1)OC(C)(C)[C@@H]1CC=C(C(=O)OC(C)C)C[C@@H]21 [Compound 29, Isopropyl (6aR,10aR)-1-hydroxy-6,6-dimethyl-3-(2-methyloctan-2-yl)-6a,7,10,10a-tetrahydro-6H-benzo[c]chromene-9-carboxylate]	3550	3550	3570	17500	1.53	4.67	4.89	0.43	3.98	0.00	1420	203	6.2	6	4.21	1400	65	79			Anti-proliferation [6]: Dermal fibroblasts; Immune modulation, cell surface and tissue remodeling biomarkers [6]: Reduced Eotaxin-3, IL-8, E-selectin, P-selectin, VCAM, EGFR,; also recorded: IL-1α, IP-10, and PAI-I; Kp at 4 h [5]: 0.00637; Kp at 10 h [5]: 0.106; concentration at 4 h [5]: 1.72 ng/g; concentration at 10 h [5]: 7.93 ng/g; concentration at 24 h [5]: 0 ng/g; EC50 (CB1 receptor [3]): 6.8 nM
CCCCCCC(C)(C)c1cc(O)c2c(c1)OC(C)(C)[C@@H]1CC=C(C(=O)NC[C@@H](O)CO)C[C@@H]21 [Compound 55, (6aR,10aR)-N—((R)-2,3-Dihydroxypropyl)-1-hydroxy-6,6-dimethyl-3-(2-methyloctan-2-yl)-6a,7,10,10a-tetrahydro-6H-benzo[c]chromene-9-carboxamide]	2360	2360	2380	3060	3.38	7.02	3.99	1.42	30.33	0	7200	882	6.4	1	2.72	7170			45	619	Anti-proliferation [6]: Dermal fibroblasts; Fold Selectivity (CB1/CB2) (CB2 receptor): 19; Ki (CB2 receptor; [9]): 33 nM
CCCCCCC(C)(C)c1cc(O)c2c(c1)OC(C)(C)[C@@H]1CC=C(C(=O)NC[C@H](O)CO)C[C@@H]21 [Compound 56, (6aR,10aR)-N—((S)-2,3-Dihydroxypropyl)-1-hydroxy-6,6-dimethyl-3-(2-methyloctan-2-yl)-6a,7,10,10a-tetrahydro-6H-benzo[c]chromene-9-carboxamide]	2080	1790	1920	2790	2.3	8.7	2.39	1.2	23.11	0	4430	902	4.89	1	2.63	4420			3.6	708	Fold Selectivity (CB1/CB2) (CB2 receptor): 17; Ki (CB2 receptor; [9]): 41 nM
